Blank lines part the entries; values can stand above or below the compound they belong to.
What was measured:
[1] = target: T1, GST tagged LXRbeta LBD (ligand binding domain) (Homo sapiens, UniProt P55055); test: LanthaScreen TR-FRET Liver X Receptor Coactivator Assay, LXR beta-LBD; assay type: biochemical; details: relative to reference T0901317; for EC50: Inflection Point (potency), co-activator recruitment, read-out: LXR beta IP; for Emax: read-out: LXR beta act @ max dose (%)
T1 construct: purchased Invitrogen pv4658.pps
T1 sequence (P55055 222-460 limits assumed): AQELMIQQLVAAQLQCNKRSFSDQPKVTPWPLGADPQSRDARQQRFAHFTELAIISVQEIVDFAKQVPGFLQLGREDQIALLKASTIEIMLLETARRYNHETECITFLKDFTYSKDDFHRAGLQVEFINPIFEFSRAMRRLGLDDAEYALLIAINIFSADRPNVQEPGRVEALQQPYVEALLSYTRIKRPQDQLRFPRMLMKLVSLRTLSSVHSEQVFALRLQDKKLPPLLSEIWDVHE
Summary of the method: (§1)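 Cmpd + LBD → add fluorescein coactivator peptide/Tb-anti-GST Ab mix → incubate RT → TR-FRET readout. IP and Emax referenced to T0901317 (dual LXR agonist).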

[2] = target: T2, GST tagged LXRalpha LBD (ligand binding domain) (Homo sapiens, UniProt Q13133); test: LanthaScreen TR-FRET Liver X Receptor Coactivator Assay, LXR alpha-LBD; assay type: biochemical; details: relative to reference T0901317; for EC50: read-out: LXR alpha IP; for Emax: read-out: LXR alpha act @ max dose (%)
T2 construct: purchased Invitrogen pv4655
T2 sequence (Q13133 209-447 limits assumed): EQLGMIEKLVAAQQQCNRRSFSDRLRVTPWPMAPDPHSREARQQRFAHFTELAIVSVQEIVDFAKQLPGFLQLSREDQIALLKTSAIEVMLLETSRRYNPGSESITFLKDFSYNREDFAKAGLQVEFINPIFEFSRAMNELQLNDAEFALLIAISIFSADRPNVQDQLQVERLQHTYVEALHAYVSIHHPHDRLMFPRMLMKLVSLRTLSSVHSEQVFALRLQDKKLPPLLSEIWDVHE
Summary of the method: as §1

[3] = activity at max dose (efficacy)
[4] = Inflection Point (potency), co-activator recruitment

SMILES: O=C(c1ccc(N2CCC(C3CCN(C(=O)[C@](O)(c4ccccc4)C(F)(F)F)CC3)CC2)cc1Cl)N1CC(N2CCCC2)C1 [Example E-42, (2R)-3-(1′-{3-chloro-4-[(3-pyrrolidin-1-ylazetidin-1-yl)carbonyl]phenyl}-4,4′-bipiperidin-1-yl)-1,1,1-trifluoro-3-oxo-2-phenylpropan-2-ol]
EC50 [1]: 98 nM
Emax [1, 3]: 39%
EC50 [2, 4]: 1460 nM
Emax [2, 3]: 25%

SMILES: CN(C)C(=O)c1ccc(N2CCC(C3CCN(C(=O)C(C)(C)C(F)(F)F)CC3)CC2)cc1Cl [Example A-41, 2-chloro-N,N-dimethyl-4-[1′-(3,3,3-trifluoro-2,2-dimethylpropanoyl)-4,4′-bipiperidin-1-yl]benzamide]
EC50 [1]: 84 nM
Emax [1, 3]: 112%
EC50 [2, 4]: 3390 nM
Emax [2, 3]: 71%

SMILES: COc1ccccc1C(C)(C)C(=O)N1CCC(C2CCN(c3ccc(C(=O)N(C)C)c(Cl)c3)CC2)CC1 [Example A-88, 2-chloro-4-{1′-[2-(2-methoxyphenyl)-2-methylpropanoyl]-4,4′-bipiperidin-1-yl}-N,N-dimethylbenzamide]
EC50 [1]: 74 nM
Emax [1, 3]: 101%
EC50 [2, 4]: 1080 nM
Emax [2, 3]: 37%

SMILES: CN(C)C(=O)c1ccc(N2CCC(C3CCN(c4ccccc4Cl)CC3)CC2)cc1Cl [Example A-107, 2-chloro-4-[1′-(2-chlorophenyl)-4,4′-bipiperidin-1-yl]-N,N-dimethylbenzamide]
EC50 [1]: 825 nM
Emax [1, 3]: 62%
LXR alpha IP (nM) [2, 4]: NO IP
Emax [2, 3]: 17%

SMILES: CC(C)C(O)(C(=O)N1CCC(C2CCN(c3ccc(C(=O)N(C)C)c(F)c3)CC2)CC1)C(F)(F)F [Example D-2, 2-fluoro-4-{1′-[2-hydroxy-3-methyl-2-(trifluoromethyl)butanoyl]-4,4′-bipiperidin-1-yl}-N,N-dimethylbenzamide]
EC50 [1]: 400 nM
Emax [1, 3]: 99%
EC50 [2, 4]: 2770 nM
Emax [2, 3]: 41%

SMILES: CN(C)C(=O)c1ccc(N2CCC(C3CCN(C(=O)C(O)(c4ccccc4)C(F)(F)F)CC3)CC2)cc1Cl (centres unmarked) [Example A-36, 2-chloro-N,N-dimethyl-4-[1′-(3,3,3-trifluoro-2-hydroxy-2-phenylpropanoyl)-4,4′-bipiperidin-1-yl]benzamide]
EC50 [1]: 108 nM
Emax [1, 3]: 113%
EC50 [2, 4]: 1800 nM
Emax [2, 3]: 27%

SMILES: CC(C)C(O)(C(=O)N1CCC(C2CCN(c3ccc(C(=O)N(C)C)cc3Cl)CC2)CC1)C(F)(F)F [Example D-3, 3-chloro-4-{1′-[2-hydroxy-3-methyl-2-(trifluoromethyl)butanoyl]-4,4′-bipiperidin-1-yl}-N,N-dimethylbenzamide]
EC50 [1]: 273 nM
Emax [1, 3]: 118%
EC50 [2, 4]: 1570 nM
Emax [2, 3]: 67%

SMILES: CN(C)C(=O)c1ccc(N2CCC(C3CCN(C(=O)C4(c5cc(F)cc(F)c5)CCCC4)CC3)CC2)cc1Cl [Example A-79, 2-chloro-4-(1′-{[1-(3,5-difluorophenyl)cyclopentyl]carbonyl}-4,4′-bipiperidin-1-yl)-N,N-dimethylbenzamide]
EC50 [1]: 216 nM
Emax [1, 3]: 125%
EC50 [2, 4]: 2540 nM
Emax [2, 3]: 35%

SMILES: CN(C)C(=O)c1ccc(N2CCC(C3CCN(C(=O)c4c(F)cccc4Cl)CC3)CC2)cc1Cl [Example A-24, 2-chloro-4-{1′-[(2-chloro-6-fluorophenyl)carbonyl]-4,4′-bipiperidin-1-yl}-N,N-dimethylbenzamide]
EC50 [1]: 89 nM
Emax [1, 3]: 107%
EC50 [2, 4]: 4850 nM
Emax [2, 3]: 31%

SMILES: CC(C)(C(=O)N1CCC(C2CCN(c3ccc(C(=O)N4CCCC4)c(Cl)c3)CC2)CC1)c1ccccc1 [Example E-18, 1-[3-chloro-4-(pyrrolidin-1-ylcarbonyl)phenyl]-1′-(2-methyl-2-phenylpropanoyl)-4,4′-bipiperidine]
EC50 [1]: 73 nM
Emax [1, 3]: 99%
EC50 [2, 4]: 1280 nM
Emax [2, 3]: 52%

SMILES: CN(C)C(=O)c1ccc(N2CCC(C3CCN(c4ccccc4C(F)(F)F)CC3)CC2)cc1Cl [Example A106, 2-chloro-N,N-dimethyl-4-{1′-[2-(trifluoromethyl)phenyl]-4,4′-bipiperidin-1-yl}benzamide]
EC50 [1]: 526 nM
Emax [1, 3]: 91%
EC50 [2, 4]: 2110 nM
Emax [2, 3]: 27%

SMILES: O=C(c1ccc(N2CCC(C3CCN(C(=O)[C@](O)(c4ccccc4)C(F)(F)F)CC3)CC2)cc1Cl)N1CC[C@H](F)C1 [Example E-26, (2R)-3-[1′-(3-chloro-4-{[(3S)-3-fluoropyrrolidin-1-yl]carbonyl}phenyl)-4,4′-bipiperidin-1-yl]-1,1,1-trifluoro-3-oxo-2-phenylpropan-2-ol]
EC50 [1]: 279 nM
Emax [1, 3]: 92%
EC50 [2, 4]: 1450 nM
Emax [2, 3]: 25%

These reach a lower EC50 [1]. Values come first.

EC50 [1]: 64 nM
Emax [1, 3]: 127%
EC50 [2, 4]: 1640 nM
Emax [2, 3]: 62%
SMILES: CN(C)C(=O)c1ccc(N2CCC(C3CCN(C(=O)C4(c5ccccc5F)CC4)CC3)CC2)cc1Cl [Example A-71, 2-chloro-4-(1′-{[1-(2-fluorophenyl)cyclopropyl]carbonyl}-4,4′-bipiperidin-1-yl)-N,N-dimethylbenzamide]

EC50 [1]: 62 nM
LXR beta act @ max dose (%) [1, 3]: 93%
EC50 [2, 4]: 1400 nM
LXR alpha act @ max dose (%) [2, 3]: 56%
SMILES: CN(C)C(=O)c1ccc(N2CCC(C3CCN(C(=O)C(O)(C(C)(C)C)C(F)(F)F)CC3)CC2)cc1Cl (single isomer, unassigned) [Example A-7, 2-Chloro-4-(1′-(2-hydroxy-3,3-dimethyl-2-(trifluoromethyl)butanoyl)-[4,4′-bipiperidin]-1-yl)-N,N-dimethylbenzamide]

EC50 [1]: 61 nM
Emax [1, 3]: 117%
EC50 [2, 4]: 3000 nM
Emax [2, 3]: 67%
SMILES: CC[C@](O)(C(=O)N1CCC(C2CCN(c3ccc(C(=O)N(C)C)c(Cl)c3)CC2)CC1)C(F)(F)F (single isomer, unassigned) [Example A-42]

EC50 [1]: 57 nM
Emax [1, 3]: 123%
EC50 [2, 4]: 1710 nM
Emax [2, 3]: 47%
SMILES: CC(C)C(O)(C(=O)N1CCC(C2CCN(c3ccc(C(=O)N(C)C)c(Cl)n3)CC2)CC1)C(C)C [Example B-2, 2-chloro-6-{1′-[2-hydroxy-3-methyl-2-(1-methylethyl)butanoyl]-4,4′-bipiperidin-1-yl}-N,N-dimethylpyridine-3-carboxamide]

EC50 [1]: 54 nM
Emax [1, 3]: 144%
EC50 [2, 4]: 936 nM
Emax [2, 3]: 74%
SMILES: CN(C)C(=O)c1ccc(N2CCC(C3CCN(C(=O)C(F)(F)c4ccccc4)CC3)CC2)cc1Cl [Example A-64, 2-chloro-4-{1′-[difluoro(phenyl)acetyl]-4,4′-bipiperidin-1-yl}-N,N-dimethylbenzamide]

EC50 [1]: 52 nM
Emax [1, 3]: 58%
EC50 [2, 4]: 1 nM
Emax [2, 3]: 3%
SMILES: CN(C)C(=O)c1ccc(N2CCC(C3CCN(C(=O)c4ccccc4Cl)CC3)CC2)cc1Cl [Example A-22, 2-chloro-4-{1′-[(2-chlorophenyl)carbonyl]-4,4′-bipiperidin-1-yl}-N,N-dimethylbenzamide]

EC50 [1]: 45 nM
Emax [1, 3]: 130%
EC50 [2, 4]: 57100 nM
Emax [2, 3]: 48%
SMILES: CN(C)C(=O)c1ccc(N2CCC(C3CCN(S(=O)(=O)c4ccccc4C#N)CC3)CC2)cc1Cl [Example A-102, 2-chloro-4-{1′-[(2-cyanophenyl)sulfonyl]-4,4′-bipiperidin-1-yl}-N,N-dimethylbenzamide]

EC50 [1]: 31 nM
Emax [1, 3]: 116%
EC50 [2, 4]: 1170 nM
Emax [2, 3]: 67%
SMILES: CN(C)C(=O)c1ccc(N2CCC(C3CCN(C(=O)C(C)(C)c4ccccc4F)CC3)CC2)cc1Cl [Example A-80, 2-chloro-4-{1′-[2-(2-fluorophenyl)-2-methylpropanoyl]-4,4′-bipiperidin-1-yl}-N,N-dimethylbenzamide]

EC50 [1]: 17 nM
Emax [1, 3]: 137%
EC50 [2, 4]: 635 nM
Emax [2, 3]: 64%
SMILES: CC(C)(C)OC(=O)NC1CN(C(=O)c2ccc(N3CCC(C4CCN(C(=O)[C@](O)(c5ccccc5)C(F)(F)C(F)(F)F)CC4)CC3)cc2Cl)C1 [Example E-65, tert-butyl {1-[(2-chloro-4-{1′-[(2R)-3,3,4,4,4-pentafluoro-2-hydroxy-2-phenylbutanoyl]-4,4′-bipiperidin-1-yl}phenyl)carbonyl]azetidin-3-yl}carbamate]

EC50 [1]: 16 nM
Emax [1, 3]: 122%
EC50 [2, 4]: 2190 nM
Emax [2, 3]: 54%
SMILES: CN(C)C(=O)c1ccc(N2CCC(C3CCN(S(=O)(=O)c4ccccc4Cl)CC3)CC2)cc1Cl [Example A-103, 2-chloro-4-{1′-[(2-chlorophenyl)sulfonyl]-4,4′-bipiperidin-1-yl}-N,N-dimethylbenzamide]

EC50 [1]: 11 nM
Emax [1, 3]: 110%
EC50 [2, 4]: 499 nM
Emax [2, 3]: 58%
SMILES: COc1ccccc1C1(C(=O)N2CCC(C3CCN(c4ccc(C(=O)N(C)C)c(Cl)c4)CC3)CC2)CCC1 [Example A-87, 2-chloro-4-(1′-{[1-(2-methoxyphenyl)cyclobutyl]carbonyl}-4,4′-bipiperidin-1-yl)-N,N-dimethylbenzamide]

From US20180305332A1, “Bispiperidinyl Derivatives as Liver X Receptor Beta Agonists, Compositions, and Their Use” (Merck Sharp & Dohme Corp., priority 2015, published 2018)
